Biological target: T1, human Itk kinase (Homo sapiens, UniProt Q08881)
T1 sequence (Q08881 1-620): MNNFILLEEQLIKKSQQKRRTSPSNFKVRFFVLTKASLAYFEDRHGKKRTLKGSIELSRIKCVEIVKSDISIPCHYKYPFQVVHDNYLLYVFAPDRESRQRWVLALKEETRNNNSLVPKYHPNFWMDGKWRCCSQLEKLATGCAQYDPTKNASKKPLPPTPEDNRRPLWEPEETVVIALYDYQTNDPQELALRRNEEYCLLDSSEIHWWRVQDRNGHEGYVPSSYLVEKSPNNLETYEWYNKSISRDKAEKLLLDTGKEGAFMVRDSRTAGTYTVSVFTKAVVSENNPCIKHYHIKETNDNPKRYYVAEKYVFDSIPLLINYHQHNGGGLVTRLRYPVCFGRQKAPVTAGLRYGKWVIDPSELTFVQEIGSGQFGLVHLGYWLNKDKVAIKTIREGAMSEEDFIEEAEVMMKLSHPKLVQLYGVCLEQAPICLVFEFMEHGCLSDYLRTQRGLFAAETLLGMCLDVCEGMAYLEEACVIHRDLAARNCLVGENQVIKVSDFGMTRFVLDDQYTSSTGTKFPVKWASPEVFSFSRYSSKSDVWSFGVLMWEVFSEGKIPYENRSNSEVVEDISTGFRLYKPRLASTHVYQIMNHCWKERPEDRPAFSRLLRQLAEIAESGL
Assay: Itk inhibition assay: radioactivity-based assay
Assay type: biochemical
Details: Ki(app)
How it was run: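 50 nM Itk with 3 μM SAM68 Δ332-443 peptide and 7.5 μM [γ-33P]ATP in MOPS pH 7.0, MgCl2, 25° C; compound (top 50 μM final, 2-fold dilutions, 2% DMSO) preincubated 10 min, reaction 10 min. Phosphocellulose filter capture and scintillation counting; Ki(app) by non-linear regression of initial rates.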

SMILES	Ki
CCOC1CN(c2cc(Nc3cc(C)[nH]n3)nc(Sc3ccc(NC(=O)c4ccccc4Cl)cc3)n2)C1 [Compound 37]	≤ 100 nM
Cc1cc(Nc2cc(N3CC(OC(C)C)C3)nc(Sc3ccc(NC(=O)c4ccccc4Cl)cc3)n2)n[nH]1 [Compound 38]	≤ 100 nM
Cc1cc(Nc2cc(N3CC(C)(O)C3)nc(Sc3ccc(NC(=O)c4ccccc4Cl)cc3)n2)[nH]n1 [Compound 50]	≤ 100 nM
COC1(C)CN(c2cc(Nc3cc(C)n[nH]3)nc(Sc3ccc(NC(=O)c4ccccc4Cl)cc3)n2)C1 [Compound 51]	≤ 100 nM
Cc1cc(Nc2cc(N3CCC3)nc(Sc3ccc(NC(=O)Cc4ccccc4Cl)cc3)n2)[nH]n1 [Compound 57]	100 to 1000 nM
Cc1cc(Nc2cc(N3CCC3)nc(Sc3ccc(NC(=O)c4cnccc4C(F)(F)F)cc3)n2)[nH]n1 [Compound 59]	100 to 1000 nM
CCC(=O)Nc1ccc(Sc2nc(Nc3cc(C)n[nH]3)cc(N3CC(OC(C)(C)C)C3)n2)cc1 [Compound 67]	100 to 1000 nM
CCC(=O)Nc1ccc(Sc2nc(Nc3cc(C)n[nH]3)cc(N3CC(N4CCOCC4)C3)n2)cc1 [Compound 68]	100 to 1000 nM
CC(C)(C)c1cc(Nc2cc(N3CCC3)nc(Sc3ccc(NC(=O)c4ccccc4Cl)cc3)n2)n[nH]1 [Compound 69]	1000 to 2000 nM
COCc1cc(Nc2cc(N3CCC3)nc(Sc3ccc(NC(=O)c4ccccc4Cl)cc3)n2)n[nH]1 [Compound 82]	100 to 1000 nM
